Here are results for six compounds from ChEMBL document CHEMBL1130516, “Synthesis and biological activity of novel penem sulfoxides and sulfones” (Bioorg Med Chem Lett, 1997).

pIC50: −log10 of the molar value.

Data set [1] relates to Enterobacter cloacae. Briefly: Inhibitory zone of compound at 30 ug against Enterobacter cloacae was determined. In kind it is functional.
Data set [2] concerns Staphylococcus. The experiment in a line: Inhibitory zone of compound at 30 ug against Staphylococcus innsbruck was determined. In kind it is functional.
The subject of data set [3] is Pseudomonas aeruginosa. The experiment in a line: Inhibitory zone of compound at 30 ug against Pseudomonas aeruginosa was determined. In kind it is functional.
Data set [4] deals with Escherichia coli. Briefly: Inhibitory zone of compound at 30 ug against Escherichia coli 1103 was determined. Format: functional.
Data set [5] deals with Staphylococcus. The experiment in a line: Inhibitory zone of compound at 30 ug against Staphylococcus 25768 was determined. In kind it is functional.
The nature of data set [6]: Compound was evaluated for half life of hydrolysis in phosphate buffer at pH 7.4 and 37 degree C. Format: ADME.
Data set [7] in a line: Compound was evaluated for relative hydrolysis rate. In kind it is ADME.
The test system of data set [8] is Staphylococcus aureus. The experiment in a line: Inhibitory zone of compound at 30 ug against Staphylococcus aureus 1104 was determined. Format: functional.
Data set [9] relates to Escherichia coli. The experiment in a line: Inhibitory zone of compound at 30 ug against Escherichia coli TEM was determined. In kind it is functional.
The subject of data set [10] is Enterococcus. Briefly: Inhibitory zone of compound at 30 ug against Enterococcus was determined. In kind it is functional.
In data set [11] the target is Beta-lactamase (Enterobacter cloacae, UniProt P05364). Briefly: Compound was evaluated for beta-lactamase inhibition activity of Enterobacter cloacae after 15 min of pre-incubation with the enzyme at 37 degree C.
In data set [12] the target is T1, Beta-lactamase TEM (Escherichia coli, UniProt P62593). Briefly: (§1) Compound was evaluated for beta-lactamase inhibition activity of Escherichia coli after 15 min of pre-incubation with the enzyme at 37 degree C.
Data set [13] addresses T1, Beta-lactamase TEM. The description is as §1. On the set-up: species or system Escherichia cloacae.

T1 sequence (P62593 whole entry): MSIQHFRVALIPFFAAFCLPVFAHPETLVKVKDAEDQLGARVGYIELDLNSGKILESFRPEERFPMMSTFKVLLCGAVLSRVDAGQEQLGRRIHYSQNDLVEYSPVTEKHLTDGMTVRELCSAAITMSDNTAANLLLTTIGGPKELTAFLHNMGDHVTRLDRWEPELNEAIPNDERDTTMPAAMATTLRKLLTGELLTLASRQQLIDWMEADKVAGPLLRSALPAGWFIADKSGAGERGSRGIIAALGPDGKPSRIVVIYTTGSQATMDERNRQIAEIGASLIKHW
Chain of Beta-lactamase (P05364 whole entry): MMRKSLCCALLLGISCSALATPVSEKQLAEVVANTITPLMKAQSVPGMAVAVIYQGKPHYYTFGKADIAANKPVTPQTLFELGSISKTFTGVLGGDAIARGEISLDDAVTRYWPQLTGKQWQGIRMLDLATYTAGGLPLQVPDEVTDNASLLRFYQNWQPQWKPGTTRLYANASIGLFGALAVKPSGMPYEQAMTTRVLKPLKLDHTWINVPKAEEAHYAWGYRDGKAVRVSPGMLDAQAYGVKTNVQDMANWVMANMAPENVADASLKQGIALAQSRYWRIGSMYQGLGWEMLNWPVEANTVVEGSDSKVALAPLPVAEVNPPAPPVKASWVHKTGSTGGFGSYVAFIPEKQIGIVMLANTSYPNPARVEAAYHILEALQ

Regarding `CC(C)(C)C1=C(C(=O)[O-])N2C(=O)C[C@H]2[S+]1[O-].[K+]` (some centres undefined), the Inhibition zone was found to be 0 mm in data set [1]; 0 mm in data set [2]; 0 mm in data set [3]; 10 mm in data set [4]; 8 mm in data set [5]; 36 mm in data set [8]. The Inhibition zone in data set [9] and in data set [10] was 0 mm in each case. In data set [6], the half-life was 5.5 h. Further, the Krel in data set [7] amounted to 39.
On to `C[C@@H](O)[C@H]1C(=O)N2C(C(=O)[O-])=C(C(C)(C)C)S(=O)(=O)[C@H]12.[K+]`, for which the Inhibition zone in data set [1], in data set [2], in [3], in [4], in data set [5] and in data set [8] was 0 mm each time. For the same compound, the Inhibition zone in [9] and in data set [10] was 0 mm in each case. Also, the values for the pIC50 in data set [11] and in data set [12] were 8.40 and 5.00, respectively. Further, the half-life in [6] was 18 h. The compound also gave a Krel in data set [7] of 720.
Take `C[C@@H](O)[C@H]1C(=O)N2C(C(=O)[O-])=C(C(C)(C)C)S[C@H]12.[K+]`: the Inhibition zone in data set [1] turned out to be 10 mm; in data set [2], 0 mm; in data set [3] it was 0 mm; in [4], 18 mm; in data set [5], 31 mm; in data set [8], 36 mm. In addition, the Inhibition zone in [9] worked out at 9 mm; in data set [10], 11 mm. Further, the pIC50 was 6.52 in data set [11] and 4.30 in [13]. In data set [6], this compound gave a half-life of 16 h. This compound gave a Krel in [7] of 0.6.
For the compound `CC(C)(C)C1=C(C(=O)[O-])N2C(=O)C[C@H]2S1.[K+]`, the Inhibition zone stood at 0 mm in data set [1]; 0 mm in [2]; 0 mm in [3]; 11 mm in data set [4]; 0 mm in data set [5]; 40 mm in data set [8]. Also, the Inhibition zone in [9] and in data set [10] was 0 mm each time. The compound also showed a half-life in data set [6] of 9 h. The same compound had a Krel in data set [7] of 1.
For `N[C@@H](C(=O)N[C@@H]1C(=O)N2C(C(=O)O)=C(Cl)CS[C@H]12)c1ccccc1.O` [CEFACLOR], the Inhibition zone in data set [1] is 7 mm; in data set [2], 12 mm; in data set [3], 0 mm; in data set [4], 25 mm; in [5] it was 13 mm; in data set [8], 32 mm. The Inhibition zone in [9] and in data set [10] was 15 mm throughout.
For `C[C@@H](O)[C@H]1C(=O)N2C(C(=O)[O-])=C(C(C)(C)C)[S+]([O-])[C@H]12.[K+]` (some centres undefined), the Inhibition zone in data set [1] was 7 mm; in data set [2] it was 0 mm; in data set [3], 0 mm; in data set [4] it was 20 mm; in data set [5] it was 24 mm; in data set [8], 30 mm. In addition, the values for the Inhibition zone in data set [9] and in data set [10] were 13 mm and 0 mm, respectively. In addition, the pIC50 was 6.52 in [11] and 4.05 in data set [12]. In data set [6], this compound showed a half-life of 6.5 h. Also, in [7], the Krel was determined as 33.

As a reminder, the half-life is the time needed for the level to fall by half in the phase considered. Read a high half-life as slow loss. Broadly, the pIC50 is the IC50 on a negative log10 scale, so that one unit is a factor of ten. Low values mean a large IC50, high ones a small IC50.
